In patent US20090175842A1, “DIETARY ANTI-BACTERIAL COMPOSITIONS” (priority 2006, published 2009):

Test system: H. pylori clinical isolate 1735 (HP-1735)
Assay: Antibacterial sensitivity / zone of growth inhibition by well/disc diffusion method
Type: cell-based, Helicobacter pylori
Details: for zone of growth inhibition: clinical isolate 1735; for Antibiotic susceptibility (disc diffusion): strain HP-1735
[1] = antibiotic concentration 30 µg/disk

SMILES | zone of growth inhibition compared with dietary antibacterial composition (H. pylori clinical isolate 1735) | zone of growth inhibition (antibiotic concentration 15 µg/disk) [mm] | Antibiotic susceptibility (disc diffusion) (clarithromycin and tetracycline criterion) | zone of growth inhibition [1] [mm] | Antibiotic susceptibility (disc diffusion) (amoxicillin criterion)
CC[C@H]1OC(=O)[C@H](C)[C@@H](O[C@H]2C[C@@](C)(OC)[C@@H](O)[C@H](C)O2)[C@H](C)[C@@H](O[C@@H]2O[C@H](C)C[C@H](N(C)C)[C@H]2O)[C@](C)(OC)C[C@@H](C)C(=O)[C@H](C)[C@@H](O)[C@]1(C)O [CLA, Clarithromycin] | less zone of growth inhibition | 8 | resistant (≦30 mm for clarithromycin and tetracycline) |  | 
CN(C)[C@@H]1C(O)=C(C(N)=O)C(=O)[C@@]2(O)C(O)=C3C(=O)c4c(O)cccc4[C@@](C)(O)[C@H]3C[C@@H]12 [TET, Tetracycline] |  |  |  | 45 | 
CC1(C)S[C@@H]2[C@H](NC(=O)[C@H](N)c3ccc(O)cc3)C(=O)N2[C@H]1C(=O)O [AMO, Amoxicillin] |  |  |  | 50 | sensitive
